Data on one compound can be found in patent publication US7659081B2, “Determination of AM-binding proteins and the association of adrenomedullin (AM) therewith” (The United States of America as represented by the …, priority 1999, dated 2010).

For assay [1] the following is noted: intravenous injection; cited from earlier work.
The target of assay [2] is T1, factor H (Homo sapiens, UniProt P08603). Nature of the assay: Cofactor activity of factor H: C3b cleavage with factor I. In kind it is biochemical. The conditions noted are these: 24 hr at 37° C. Here is the method:
FIG. 10 illustrates the effect of AM on factor H activity. C3b (104 kDa α′ chain and 71 kDa β chain) was incubated 24 hr at 37° C. with factor H, factor I, and various peptides. Cleavage of the C3b α′ chain produced three bands with molecular weights 68 kD, 43 kD, and 42 kD.
To measure the cofactor activity of factor H, C3b (28 pmols) was incubated with factor I (0.16 pmols) and factor H (0.16 pmols) in the presence or absence of AM and related peptides for 24 hr at 37° C. in a final volume of 50 μl of PBS. Samples were fractionated by SDS-PAGE using 4-12% Tris-Bis gels (Novex) under reducing conditions, and stained with Coomassie Blue. C3b and factor I were purchased from Advanced Research Technologies (San Diego, Calif.). FIGS. 10A and 10B.

The target of assay [3] is T2, AMBP-1 (factor H) (Homo sapiens, UniProt P08603).
T2 construct: Total proteins derived from human plasma (2 μl) were electrophoretically fractionated; from tissue; host or cells: human plasma
Nature of the assay: Ligand blot competition of labeled AM binding to plasma AMBP-1. The conditions noted are these: 7 μM unlabeled peptide, preincubation 6 hr at 4° C. Here is the method: Total proteins derived from human plasma (2 μl) were electrophoretically fractionated on 3-8% Tris-acetate gel (Novex, San Diego, Calif.) under non-reducing conditions. For the ligand blotting experiment, the proteins were transferred to a […] nitrocellulose membrane that was incubated for […] with 1% Nonidet P-40 (NP-40). Non-specific binding was further blocked with a 2 hr incubation in TBS containing 0.1% ATC. Incubations with 70 nM AM labeled with biotin, fluorescein, or DNP were carried out overnight at 4° C. in blocking buffer containing 0.1% TWEEN® 20 nonionic detergent. For biotin detection, the ligand blot was incubated with an avidin-biotin-peroxidase complex and the AEC reagent (Vector Laboratories, Inc., Burlingame, Calif.). For fluorescein and DNP, the ligand blots were incubated 1 hr at room temperature with rabbit anti-fluorescein or anti-DNP IgG, respectively, (1:1000 in incubation buffer; Molecular Probes, Inc.). Anti-rabbit antibody labeled with alkaline phosphatase (1:2000; Dako Corporation, Carpenteira, Calif.) was added for 0.5 hr, and the blot was developed using 4-nitro blue tetrazolium chloride/5-bromo-4-chloro-3-indolyl phosphate (NBT/BCIP) as the color-substrate solution (Roche Molecular Biochemicals, Indianapolis, Ind.).
Following this preincubation, labeled full-length AM was introduced and incubated overnight at 4° C.

Assay [4] relates to pancreatic islets. Nature of the assay: Insulin secretion and cAMP in isolated pancreatic islets. Format: cell-based, rat. The following applies: islets with AM and/or factor H. The source says:
A representative experiment is shown. Values for each treatment represent the mean and standard deviation of three independent wells. […] All values were statistically different (p<0.05) from the negative controls (first bar).
Pancreatic islets were isolated from 12 rats as previously described (A. Martínez et al., 2000, Endocrinology 141:406-411). Briefly, the heart of each rat was perfused with Hank's balanced salt solution (Sigma) to remove blood from pancreatic vessels. A small canula was inserted into the common biliary duct while the coledoco was sealed. Twenty to twenty-five milliliters of 0.4 mg/ml collagenase XI (Sigma) in Hank's solution was pumped through the canula until the pancreas was fully inflated. The pancreas was removed and incubated at 37° C. for 20 min. Following this, 20 ml of ice-cold Hank's solution was added and the pancreas dissociated by vigorous vortexing. After several washes, the islets were collected and distributed into 24 well plates using a dissecting microscope, with approximately 70 islets per well.
Freshly isolated islets were incubated in RPMI-1640 (Life Technologies) containing 5.6 mM glucose for 45 min at 37° C. […] Insulin and cAMP were measured by radioimmunoassay with commercial kits (Amersham, Arlington Heights, Ill.), according to the manufacturer's directions. […]

In assay [5] the target is T1, factor H. Description: Multi-well plate competition of fluorescein-labeled AM binding to factor H. Further details: purchased Sigma. The conditions noted are these: 50 nM fluorescein-labeled AM; factor H 5 ng/well; increasing concentrations of unlabeled competitor. Here is the method:
Lane 1: horseradish peroxidase (5 μg), a glycosylated protein used as positive control; Lane 2: soybean trypsin inhibitor (5 μg), a non-glycosylated protein used as negative control; Lane 3: AMBP-1 (2 μg). […] Lane 1: isoelectric focusing markers; Lane 2: AMBP-1 (4 μg). […] Lane 1: AMBP-1 (100 ng); Lane 2: AMBP-1 (200 ng); Lane 3: commercially available human factor H (50 ng); Lane 4: human plasma (0.2 μl). […] Results represent one of two independent experiments. Values represent mean and standard deviation of three determinations. “B/B0” indicates the ratio of signals generated in the presence/absence of unlabeled competitor.
Alternatively, the AM/fH interaction was analyzed using a multi-well assay. In accordance with this assay, a 96-well polyvinylchloride (PVC) plate was coated with factor H (5 ng/well, Sigma, St. Louis, Mo.). The plate was blocked with a solution containing TBS, 0.1% ATC, and 0.1% TWEEN® 20 nonionic detergent, and then incubated with fluorescein-labeled AM (50 nM) for 2 hr. Prior to the development of the assay, the wells were incubated for various time periods with PBS or 3M NaSCN pH 7.4. Following this, the plate was washed and incubated with anti-fluorescein polyclonal antibody (1:1000, Molecular Probes) and ^125I-Protein A (Amersham Pharmacia Biotech). Radioactivity was determined using a gamma counter. FIG. 6B.

T1 sequence (P08603 19-1231): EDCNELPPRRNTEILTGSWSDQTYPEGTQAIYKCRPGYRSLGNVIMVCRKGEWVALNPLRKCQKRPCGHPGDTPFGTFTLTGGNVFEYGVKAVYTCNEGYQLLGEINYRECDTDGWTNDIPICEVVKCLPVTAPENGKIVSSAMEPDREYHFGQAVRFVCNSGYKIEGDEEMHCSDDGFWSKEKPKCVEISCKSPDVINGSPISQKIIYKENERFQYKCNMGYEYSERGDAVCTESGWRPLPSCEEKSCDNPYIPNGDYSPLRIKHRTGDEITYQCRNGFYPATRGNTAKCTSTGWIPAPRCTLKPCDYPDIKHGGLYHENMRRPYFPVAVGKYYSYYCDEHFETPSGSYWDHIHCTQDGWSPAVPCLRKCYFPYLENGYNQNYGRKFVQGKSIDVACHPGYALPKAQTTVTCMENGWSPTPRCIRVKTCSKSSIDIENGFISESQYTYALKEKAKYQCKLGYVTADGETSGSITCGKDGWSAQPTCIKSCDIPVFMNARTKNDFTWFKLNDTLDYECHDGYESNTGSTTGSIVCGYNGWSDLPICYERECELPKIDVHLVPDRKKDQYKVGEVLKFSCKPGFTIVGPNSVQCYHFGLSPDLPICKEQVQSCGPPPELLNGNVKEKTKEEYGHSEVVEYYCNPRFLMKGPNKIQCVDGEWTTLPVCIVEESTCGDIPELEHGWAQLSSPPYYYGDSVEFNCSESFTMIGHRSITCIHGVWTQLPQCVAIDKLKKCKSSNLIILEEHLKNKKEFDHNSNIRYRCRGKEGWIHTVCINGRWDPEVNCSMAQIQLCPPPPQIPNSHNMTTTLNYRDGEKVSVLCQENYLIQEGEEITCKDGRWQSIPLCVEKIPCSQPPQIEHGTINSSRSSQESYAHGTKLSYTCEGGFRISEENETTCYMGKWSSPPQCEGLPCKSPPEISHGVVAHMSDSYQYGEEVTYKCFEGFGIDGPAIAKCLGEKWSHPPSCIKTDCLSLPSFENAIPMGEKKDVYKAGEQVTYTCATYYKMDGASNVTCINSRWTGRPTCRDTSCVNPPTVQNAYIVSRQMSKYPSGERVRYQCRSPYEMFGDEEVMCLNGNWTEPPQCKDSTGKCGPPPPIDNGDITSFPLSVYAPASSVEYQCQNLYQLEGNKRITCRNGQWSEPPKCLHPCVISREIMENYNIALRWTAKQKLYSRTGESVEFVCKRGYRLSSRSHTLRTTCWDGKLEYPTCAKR
T2 sequence (P08603 19-1231): as above

For the compound `CC[C@H](C)[C@H](NC(=O)[C@H](CCC(N)=O)NC(=O)[C@H](Cc1c[nH]cn1)NC(=O)[C@H](C)NC(=O)[C@H](CC(C)C)NC(=O)[C@H](CCCCN)NC(=O)[C@H](CCC(N)=O)NC(=O)[C@@H](NC(=O)[C@@H](NC(=O)[C@@H]1CSSC[C@H](NC(=O)CNC(=O)[C@H](Cc2ccccc2)NC(=O)[C@H](CO)NC(=O)[C@H](CCCNC(=N)N)NC(=O)[C@H](CC(C)C)NC(=O)CNC(=O)[C@H](CCC(N)=O)NC(=O)[C@H](Cc2ccccc2)NC(=O)[C@H](CC(N)=O)NC(=O)[C@H](CC(N)=O)NC(=O)[C@H](CCSC)NC(=O)[C@H](CO)NC(=O)[C@H](CCC(N)=O)NC(=O)[C@H](CCCNC(=N)N)NC(=O)[C@@H](N)Cc2ccc(O)cc2)C(=O)N[C@@H](CCCNC(=N)N)C(=O)N[C@@H](Cc2ccccc2)C(=O)NCC(=O)N[C@@H]([C@@H](C)O)C(=O)N1)[C@@H](C)O)C(C)C)C(=O)N[C@@H](Cc1ccc(O)cc1)C(=O)N[C@@H](CCC(N)=O)C(=O)N[C@@H](Cc1ccccc1)C(=O)N[C@H](C(=O)N[C@@H](CC(=O)O)C(=O)N[C@@H](CCCCN)C(=O)N[C@@H](CC(=O)O)C(=O)N[C@@H](CCCCN)C(=O)N[C@@H](CC(=O)O)C(=O)N[C@@H](CC(N)=O)C(=O)N[C@H](C(=O)N[C@@H](C)C(=O)N1CCC[C@H]1C(=O)N[C@@H](CCCNC(=N)N)C(=O)N[C@@H](CO)C(=O)N[C@@H](CCCCN)C(=O)N[C@H](C(=O)N[C@@H](CO)C(=O)N1CCC[C@H]1C(=O)N[C@@H](CCC(N)=O)C(=O)NCC(=O)N[C@@H](Cc1ccc(O)cc1)C(N)=O)[C@@H](C)CC)C(C)C)[C@@H](C)O` [AM, Adrenomedullin], in assay [1], the “Insulin and glucose in the bloodstream” value is listed as “reduces the levels of insulin in the bloodstream with a concomitant increase in circulating glucose”. Also, in assay [2], the “Effect on fH/fI-mediated cleavage of C3b” value is on record as “enhances fH/fI-mediated cleavage of C3b”. The “Competition for labeled AM/AMBP-1 complex on ligand blot” value in assay [3] is listed as “able to dissociate the AM/AMBP-1 (AM/fH) complex”. In addition, in assay [4], the cAMP in islets entry is recorded as “concomitant elevations on cAMP”. Also, the Insulin secretion entry in assay [4] (20.6 mM glucose, 45 min) is recorded as “dose-dependent decreases in insulin secretion”. Also, the “Effect on binding of fluorescein-labeled AM to factor H-coated plate” value in assay [5] is given as “competitively inhibited”.
